Experimental data reported in ChEMBL document CHEMBL4622872, “Discovery of DS-1971a, a Potent, Selective NaV1.7 Inhibitor” (J Med Chem, 2020).
In brackets after ≈: the same amount, converted by molar mass.

Legend:
[1] = Distribution coefficient, log D of the compound in 1-octanol and PBS buffer at pH 7.4 measured after 30 mins by LC-MS analysis; type: physicochemical; details: 1-octanol/PBS buffer
[2] = Aqueous thermodynamic solubility of the compound at pH 6.8 measured after 4 hrs by UV-HPLC analysis; type: physicochemical; details: buffer, pH 6.8; read-out: Therm_solubility
[3] = Stability of the compound in mouse liver microsomes assessed as parent compound remaining measured after 0.5 hrs; type: ADME, Microsome; details: mouse liver microsomes, read-out: Stability

logD at 0.5 h [1] | solubility thermodynamic at 4 h [2] [µM] | remaining at 0.5 h [3] [%] | Structure (SMILES)
0.6 | > 1900 | 91 | Cn1nccc1[C@H]1CCC[C@@H]1Oc1cc(F)c(S(=O)(=O)Nc2ncns2)cc1F (racemic)
2.1 | 250 (≈ 110 µg/mL) | 54 | Cn1nccc1[C@H]1CCC[C@@H]1Oc1cc(F)c(S(=O)(=O)Nc2nccs2)cc1F (racemic)
1.8 | 660 (≈ 300 µg/mL) | 28 | Cn1nccc1[C@H]1CCCC[C@@H]1Oc1cc(F)c(S(=O)(=O)Nc2cscn2)cc1F (racemic)
0.9 | 1200 (≈ 518 µg/mL) | 87 | Cc1cc(S(=O)(=O)Nc2ccncn2)c(F)cc1O[C@H]1CCC[C@@H]1c1ccnn1C (racemic)
0.9 | 240 (≈ 108 µg/mL) | 88 | Cn1nccc1[C@H]1CCC[C@@H]1Oc1cc(F)c(S(=O)(=O)Nc2ccncn2)cc1Cl (racemic)
0.9 | 1800 (≈ 802 µg/mL) | 75 | Cc1cc(S(=O)(=O)Nc2ccncn2)c(F)cc1O[C@H]1CCCC[C@@H]1c1ccnn1C (racemic)
0.3 | 1900 (≈ 854 µg/mL) | 80 | Cn1nccc1[C@H]1CCCC[C@@H]1Oc1cc(F)c(S(=O)(=O)Nc2ccncn2)cc1F (racemic)
0.9 | 1800 (≈ 820 µg/mL) | 69 | Cc1nsc(NS(=O)(=O)c2cc(F)c(O[C@H]3CCC[C@@H]3c3ccnn3C)cc2F)n1 (racemic)
